Format in all cases: organism-based
What all share (conditions): in vivo

The test system of series [1] is Malus domestica. Kind of series: Phytotoxicity in Malus x domestica (apple) assessed as width of harvested fruit at 0.025% […] (reference value: 76 mm).
The test system of series [2] is Malus domestica. Kind of series: Phytotoxicity in Malus x domestica (apple) assessed as mass of harvested fruit at 0.025% […] (reference value: 181 g).
The test system of series [3] is Malus domestica. As to the kind of experiment: Phytotoxicity in Malus x domestica (apple) assessed as length of harvested fruit at 0.025% […] (reference value: 63.3 mm).
In series [4] the test system is Malus domestica. As to the kind of experiment: Phytotoxicity in Malus x domestica (apple) assessed as total soluble solid of harvested fruit at 0.025% by refractometric analysis (reference value: 14%).

On to `CC(C)(C)C(O)(CCc1ccc(Cl)cc1)Cn1cncn1` (centres undefined) [TEBUCONAZOLE], for which the Activity in the series with Malus domestica [1] was found to be 80.3 mm; with Malus domestica [2], 229 g; with Malus domestica [3] it was 68 mm; with Malus domestica [4] it was 14.1%.

Values taken from ChEMBL document CHEMBL3045860, “The effect of sodium bicarbonate alone or in combination with a reduced dose of tebuconazole on the control of apple scab” (Crop Prot, 2006).
